Test results reported in ChEMBL document CHEMBL3988442, “University of Dundee, Small-Polar-MMV Screening Library” (2021).
Where “and” joins values, the source holds several entries; their conditions need not be identical. Equal values may be shown once.

Assays:
Histidine--tRNA ligase [1] = target: T1, Histidine--tRNA ligase (Trypanosoma cruzi (strain CL Brener), UniProt Q4DA54); experiment: Trypanosoma cruzi histidyl tRNA synthetase (Tc-HisRS); type: functional
T1 sequence (Q4DA54 whole entry): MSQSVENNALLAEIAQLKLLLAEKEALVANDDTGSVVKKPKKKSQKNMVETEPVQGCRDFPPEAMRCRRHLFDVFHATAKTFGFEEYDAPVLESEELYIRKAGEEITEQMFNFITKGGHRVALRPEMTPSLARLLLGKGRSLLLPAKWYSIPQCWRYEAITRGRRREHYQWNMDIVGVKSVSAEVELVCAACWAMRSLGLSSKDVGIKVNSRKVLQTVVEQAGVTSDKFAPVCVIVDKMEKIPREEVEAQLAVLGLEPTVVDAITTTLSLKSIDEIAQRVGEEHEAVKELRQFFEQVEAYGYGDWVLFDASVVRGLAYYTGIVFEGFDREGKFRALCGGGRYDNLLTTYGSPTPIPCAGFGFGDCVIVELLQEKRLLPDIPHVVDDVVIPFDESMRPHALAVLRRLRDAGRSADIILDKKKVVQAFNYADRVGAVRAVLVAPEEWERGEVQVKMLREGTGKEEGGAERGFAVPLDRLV

[2] = target: Chromo domain-containing protein 1 (Saccharomyces cerevisiae (strain ATCC 204508 / S288c) (Baker's yeast), UniProt P32657); experiment: ScCHD-1 Enzyme Inhibition Assay; type: functional
Schistosoma mansoni = experiment: High throughput screening of compounds against Schistosoma mansoni motility; type: functional; parameters: dose or concentration left out as unconfirmed
ClpP1P2 = ClpP1P2 (Mycobacterium tuberculosis (strain ATCC 25618 / H37Rv), UniProt P9WPC3+P9WPC5); experiment: in vitro assay to detect presence of AMC directly proportional to the activity of ClpP1P2. GHDDI collaboration.; type: functional
Histidine--tRNA ligase [3] = target: T2, Histidine--tRNA ligase (Leishmania infantum, UniProt A4I591); experiment: Leishmania infantum Histidine tRNA synthetase (LdHisRS); type: functional
T2 sequence (A4I591 whole entry): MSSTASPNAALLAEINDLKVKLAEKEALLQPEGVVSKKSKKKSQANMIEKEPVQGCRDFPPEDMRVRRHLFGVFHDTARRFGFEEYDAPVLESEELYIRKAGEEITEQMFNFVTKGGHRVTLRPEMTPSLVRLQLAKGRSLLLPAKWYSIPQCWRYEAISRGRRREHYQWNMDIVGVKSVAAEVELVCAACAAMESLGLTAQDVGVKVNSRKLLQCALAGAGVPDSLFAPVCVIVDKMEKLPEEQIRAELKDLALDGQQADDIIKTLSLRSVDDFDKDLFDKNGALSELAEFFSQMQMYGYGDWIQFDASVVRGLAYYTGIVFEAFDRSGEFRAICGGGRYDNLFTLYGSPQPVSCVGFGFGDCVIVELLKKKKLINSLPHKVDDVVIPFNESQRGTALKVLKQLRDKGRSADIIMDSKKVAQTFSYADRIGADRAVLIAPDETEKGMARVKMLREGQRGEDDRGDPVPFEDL

[4] = target: Sialic acid-binding Ig-like lectin 9 (Homo sapiens, UniProt Q9Y336); experiment: Hs-Siglec9 ALPHAscreen SOP 20170721
[5] = target: T3, Coenzyme A biosynthesis bifunctional protein CoaBC (Mycobacterium tuberculosis (strain ATCC 25618 / H37Rv), UniProt P9WNZ1); experiment: Biomol Green assay for MtCoaBC inhibitor, OD650 read; type: functional
T3 sequence (P9WNZ1 whole entry): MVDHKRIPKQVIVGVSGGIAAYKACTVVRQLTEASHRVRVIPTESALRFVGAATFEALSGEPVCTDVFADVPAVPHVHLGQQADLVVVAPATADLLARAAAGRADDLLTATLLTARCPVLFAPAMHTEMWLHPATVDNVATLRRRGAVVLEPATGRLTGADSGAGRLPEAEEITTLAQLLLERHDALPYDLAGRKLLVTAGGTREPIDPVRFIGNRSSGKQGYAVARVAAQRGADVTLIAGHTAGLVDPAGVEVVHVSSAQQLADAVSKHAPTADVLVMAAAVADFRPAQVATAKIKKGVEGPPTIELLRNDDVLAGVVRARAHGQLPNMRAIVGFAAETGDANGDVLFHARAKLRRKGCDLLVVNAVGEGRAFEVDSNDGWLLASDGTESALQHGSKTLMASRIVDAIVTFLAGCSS

[6] = microbe, parasite or virus in culture; details: Mycobacterium tuberculosis, 72 h, read-out: pIC50 (converted)
[7] = microbe, parasite or virus in culture; details: Mycobacterium tuberculosis, 96 h, read-out: pIC50 (converted)
Tryptophan--tRNA ligase = Tryptophan--tRNA ligase (Mycobacterium tuberculosis (strain ATCC 25618 / H37Rv), UniProt P9WFT3); experiment: Biochemical assay for Mt-TrpRS; type: functional
Plasmodium falciparum = experiment: Calibr Malaria Delayed Death Assay SOP; type: functional, organism-based
Wolbachia pipientis = experiment: Anti-Wolbachia Cell-Based Screen; type: functional

Chain of ClpP1P2 (P9WPC5 whole entry): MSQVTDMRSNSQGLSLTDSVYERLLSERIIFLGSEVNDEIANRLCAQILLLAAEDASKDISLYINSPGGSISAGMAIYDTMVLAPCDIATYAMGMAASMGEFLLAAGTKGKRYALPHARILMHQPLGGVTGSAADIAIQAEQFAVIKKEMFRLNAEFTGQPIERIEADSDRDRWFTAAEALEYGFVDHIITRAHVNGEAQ
Chain of ClpP1P2 (P9WPC3 whole entry): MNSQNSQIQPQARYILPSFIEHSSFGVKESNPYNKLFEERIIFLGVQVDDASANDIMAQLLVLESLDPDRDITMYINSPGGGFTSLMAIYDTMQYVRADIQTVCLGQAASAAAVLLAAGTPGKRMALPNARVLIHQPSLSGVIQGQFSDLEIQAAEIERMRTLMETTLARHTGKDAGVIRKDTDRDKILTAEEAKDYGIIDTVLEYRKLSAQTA
Chain of Tryptophan--tRNA ligase (P9WFT3 whole entry): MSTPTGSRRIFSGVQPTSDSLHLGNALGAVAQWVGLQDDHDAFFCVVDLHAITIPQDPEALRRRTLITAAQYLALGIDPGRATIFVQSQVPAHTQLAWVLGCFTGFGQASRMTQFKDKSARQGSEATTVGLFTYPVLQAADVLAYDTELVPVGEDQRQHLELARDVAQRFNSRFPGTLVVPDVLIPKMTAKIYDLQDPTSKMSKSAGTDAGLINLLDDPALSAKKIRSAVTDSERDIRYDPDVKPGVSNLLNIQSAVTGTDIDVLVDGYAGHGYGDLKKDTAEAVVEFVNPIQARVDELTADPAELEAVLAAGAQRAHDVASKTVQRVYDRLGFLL
Chain of Chromo domain-containing protein 1 (P32657 whole entry, the tested form may be a part): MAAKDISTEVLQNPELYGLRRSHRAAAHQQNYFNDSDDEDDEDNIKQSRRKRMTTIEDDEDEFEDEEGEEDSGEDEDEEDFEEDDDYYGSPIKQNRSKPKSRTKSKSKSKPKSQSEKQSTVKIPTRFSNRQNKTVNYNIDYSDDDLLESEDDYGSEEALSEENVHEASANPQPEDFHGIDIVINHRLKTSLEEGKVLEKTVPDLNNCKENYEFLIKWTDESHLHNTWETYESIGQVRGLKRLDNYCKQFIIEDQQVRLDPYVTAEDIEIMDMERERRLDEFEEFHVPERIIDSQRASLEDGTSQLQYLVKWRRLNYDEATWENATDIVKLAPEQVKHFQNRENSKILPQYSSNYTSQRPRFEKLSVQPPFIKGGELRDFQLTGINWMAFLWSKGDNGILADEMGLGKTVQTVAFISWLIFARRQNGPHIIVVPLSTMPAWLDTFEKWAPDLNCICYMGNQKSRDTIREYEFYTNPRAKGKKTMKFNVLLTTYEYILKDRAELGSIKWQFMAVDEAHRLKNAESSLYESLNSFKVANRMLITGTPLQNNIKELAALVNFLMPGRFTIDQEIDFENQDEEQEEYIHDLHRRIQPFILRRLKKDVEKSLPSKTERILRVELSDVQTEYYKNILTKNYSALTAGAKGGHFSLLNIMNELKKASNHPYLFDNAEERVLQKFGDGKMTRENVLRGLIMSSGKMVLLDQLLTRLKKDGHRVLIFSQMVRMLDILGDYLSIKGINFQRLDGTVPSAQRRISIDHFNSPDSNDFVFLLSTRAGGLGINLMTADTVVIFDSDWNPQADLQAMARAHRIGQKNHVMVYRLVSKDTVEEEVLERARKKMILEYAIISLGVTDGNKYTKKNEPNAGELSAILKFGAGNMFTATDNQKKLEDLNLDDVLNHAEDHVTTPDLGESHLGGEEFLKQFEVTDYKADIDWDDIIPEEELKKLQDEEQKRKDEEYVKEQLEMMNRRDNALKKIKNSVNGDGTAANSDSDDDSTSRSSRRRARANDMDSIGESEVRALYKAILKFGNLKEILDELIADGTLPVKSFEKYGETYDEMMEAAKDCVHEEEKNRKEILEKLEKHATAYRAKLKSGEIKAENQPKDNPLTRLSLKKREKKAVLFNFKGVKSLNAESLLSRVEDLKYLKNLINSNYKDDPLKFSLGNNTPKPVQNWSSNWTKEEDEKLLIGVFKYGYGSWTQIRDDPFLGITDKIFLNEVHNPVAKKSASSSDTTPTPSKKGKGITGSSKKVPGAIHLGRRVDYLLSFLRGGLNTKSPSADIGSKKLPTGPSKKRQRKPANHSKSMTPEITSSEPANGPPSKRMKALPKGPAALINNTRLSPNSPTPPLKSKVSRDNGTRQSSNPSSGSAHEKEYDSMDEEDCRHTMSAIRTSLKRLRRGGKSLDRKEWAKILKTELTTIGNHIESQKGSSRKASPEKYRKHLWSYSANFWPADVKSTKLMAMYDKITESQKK
Chain of Sialic acid-binding Ig-like lectin 9 (Q9Y336 whole entry): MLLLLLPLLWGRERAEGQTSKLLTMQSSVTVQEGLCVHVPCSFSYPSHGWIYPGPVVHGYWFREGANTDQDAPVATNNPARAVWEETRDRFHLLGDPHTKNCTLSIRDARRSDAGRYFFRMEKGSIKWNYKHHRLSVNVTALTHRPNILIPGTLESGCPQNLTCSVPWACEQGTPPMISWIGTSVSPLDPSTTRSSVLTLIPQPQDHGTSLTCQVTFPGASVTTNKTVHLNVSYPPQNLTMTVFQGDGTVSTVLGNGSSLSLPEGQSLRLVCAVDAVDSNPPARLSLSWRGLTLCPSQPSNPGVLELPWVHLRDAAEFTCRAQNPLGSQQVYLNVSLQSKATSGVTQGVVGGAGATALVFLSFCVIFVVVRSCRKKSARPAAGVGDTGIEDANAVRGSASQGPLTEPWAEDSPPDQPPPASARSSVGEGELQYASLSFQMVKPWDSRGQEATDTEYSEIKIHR

SMILES | IC50 [2] | Percent Effect (Schistosoma mansoni) [%] | also measured
Cc1ccc(N2CCOCC3(CCCN(c4ncc(F)cn4)C3)C2)nn1 (stereo not given) |  |  | IC50 (Histidine--tRNA ligase [1]): > 100 µM
Cc1cnc(N2CCCC3(COCCN(c4ccc(C)nn4)C3)C2)nc1 (stereo not given) |  |  | IC50 (Histidine--tRNA ligase [1]): > 100 µM
Cc1cccc(NC(=O)Cn2ncc(SCC(N)=O)c(Cl)c2=O)c1C | > 29.5 µM | 40.97 | 
COc1ccc(C)cc1S(=O)(=O)NCC(c1cccn1C)N(C)C (stereo not given) | > 29.5 µM | -44.63 | 
COc1ncccc1C(=O)Nc1nc2c(s1)CN(S(=O)(=O)C1CC1)CC2 | > 29.5 µM | -71.23 | 
O=C(Cn1cc(-c2ccccc2)ncc1=O)Nc1ccncc1 | > 29.5 µM |  | IC50 (ClpP1P2): > 100 µM
O=C(Cn1cc(-c2ccccc2)ncc1=O)Nc1nnc[nH]1 | > 29.5 µM |  | IC50 (ClpP1P2): > 100 µM
O=C1CC(c2ccco2)c2sc(C(=O)O)c(-c3ccccc3)c2N1 (stereo not given) | 20.8 µM and 21.6 µM |  | IC50 (Histidine--tRNA ligase [3]): 17.3 µM and 12.6 µM; IC50 [4]: > 30.2 µM; IC50 (ClpP1P2): > 100 µM; IC50 [5]: > 30.2 µM
Nc1ncc2c(n1)CN(C1CCCC1)C2=O | > 29.5 µM |  | IC50 [6]: 16.8 µM; IC50 [7]: 20.4 µM
CC(=O)NCCc1ccc(S(=O)(=O)N(CC(C)C)C(C)C)s1 | > 29.5 µM | 41.16 | 
Cc1cnc(CNc2c(F)cccc2-n2cccn2)o1 | > 29.5 µM | -41.52 | 
O=C(CN1CCc2ccccc21)Nc1ccc(OC(F)F)cc1 | > 29.5 µM | 42 | IC50 (Tryptophan--tRNA ligase): > 195 µM
Cc1cc(NC(=O)NCCc2ccsc2)n(C)n1 | > 29.5 µM | 10.29 | IC50 (Tryptophan--tRNA ligase): > 195 µM
Cc1cc(CN(C)C(=O)NC(C)c2nncn2C)no1 (stereo not given) | > 29.5 µM | 0.6145 | 
O=C(NS(=O)(=O)c1ccccc1Cl)c1cccc2c1OCCO2 | > 29.5 µM | -35.61 | 
CC(c1cccnc1)N(C)Cc1csc(-c2ccccn2)n1 (stereo not given) | > 29.5 µM | -97.18 | 
CSCCC(=O)N1CCCC1c1ccsc1 (stereo not given) | > 29.5 µM | -17.9 | IC50 (Tryptophan--tRNA ligase): > 195 µM
CCc1cnc(CN(C)C2CCN(CCc3ccccn3)C2)o1 (stereo not given) | > 29.5 µM | -35.57 | 
CN(C)C(C)(C)CNC(=O)C(C)(C)c1ccccc1F | > 29.5 µM | -62.05 | 
COc1ccc(CNC(=O)C2(C#N)CCCC2)cc1 | > 29.5 µM | -106.9 | IC50 (Tryptophan--tRNA ligase): > 195 µM
CCOc1ncccc1NC(=O)c1cc2c(s1)CCC2 | > 29.5 µM | -62.61 | 
O=C(Nc1cccc(CN2CCOC2=O)c1)N1CCSCC1 | > 29.5 µM | -6.059 | 
CC(C)NC(=O)c1nnn(-c2cccc(C(F)(F)F)c2)c1C1CC1 | > 29.5 µM | -32.68 | 
CCCN(CC(=O)NC)C(=O)c1ccc(-c2ccsc2)nc1C | > 29.5 µM | -8.65 | 
CC(NC(=O)CCCOc1ccccc1Cl)c1ccncc1 (stereo not given) | > 29.5 µM | -74.47 | 
CSCC(CCO)NC(=O)Nc1cc(Br)ccc1C (stereo not given) | > 29.5 µM | -20.66 | 
O=C(NCC(O)c1ccccc1Cl)c1cccc(-n2cnnn2)c1 (stereo not given) | > 29.5 µM | -46.05 | 
CCn1ccnc1-c1nc2cc(S(=O)(=O)N3CCCC3)ccc2n1C | > 29.5 µM | -59.51 | 

SMILES | IC50 [2] | Percent Effect (Schistosoma mansoni) [%] | also measured
CSc1ccccc1CN1CCCn2nc(CNC(=O)N(C)C)cc2C1 | > 29.5 µM | -17.72 | 
COC(=O)c1ccc2ccn(CC3CCCO3)c(=O)c2c1 (stereo not given) | > 29.5 µM | -62.88 | 
COc1ccccc1CN(C)C(=O)c1cc(CN2CCC(O)CC2)on1 | > 29.5 µM | -57.63 | 
OCC1CCCCN1c1ccc(-c2nc(-c3ccccc3F)no2)cn1 (stereo not given) | > 29.5 µM |  | pIC50 (Plasmodium falciparum): 7.272 and 6.795
Cc1noc([C@@H]2CCCN2C(=O)C2CCN(C(=O)C3CCC3)CC2)n1 | > 29.5 µM | 8.394 | 
NC(=O)C1CCN(C(=O)c2cccc(CN3CCOCC3)c2)CC1 | > 29.5 µM | 38.13 | 
Cc1ccc(-c2nc(CNC3CCc4ncnn4C3)co2)c(C)c1 (stereo not given) | > 29.5 µM |  | 
CC(C)c1nc(C2CCCN2Cc2ccccc2C#N)no1 (stereo not given) | > 29.5 µM |  | 
c1ncn(CC2CCCCN2Cc2csc(C3CCCC3)n2)n1 (stereo not given) | > 29.5 µM |  | 
Cc1cc(C(=O)N2CCCCC2c2nc(C)cs2)[nH]n1 (stereo not given) | > 29.5 µM |  | 
COc1ccc(C(=O)N2CCCCC2c2nc(C)cs2)nn1 (stereo not given) | 21.8 µM and > 29.5 µM |  | 
O=C(CS(=O)(=O)CC1CCCCC1)NC1CCCCNC1=O (stereo not given) | > 29.5 µM |  | 
CN(C)c1ccc(CNc2cncc(-n3cccn3)n2)cc1 | > 29.5 µM |  | 
CN(C)C(CNC(=O)c1cc2c([nH]c1=O)CCCC2=O)c1ccsc1 (stereo not given) | > 29.5 µM |  | 
CNC(=O)COc1ccccc1CNC1CCc2ncnn2C1 (stereo not given) | > 29.5 µM |  | 
CNC(=O)C1CCC(NC(=O)N(C)Cc2c(C)noc2C)CC1 (stereo not given) | > 29.5 µM |  | 
O=C1NCc2ccc(NC(=O)C3CCCN3c3nccs3)cc21 (stereo not given) | > 29.5 µM |  | 
CC(Cn1cccn1)NC(=O)N1CCN(Cc2cccs2)CC1 (stereo not given) | > 29.5 µM |  | 
CC(NC(=O)c1cc(Br)c2c(c1)OCCO2)C(N)=O (stereo not given) | > 29.5 µM |  | 
CC(=O)N(Cc1noc(C)n1)C1CCN(Cc2ccon2)C1 (stereo not given) | > 29.5 µM |  | 
CNS(=O)(=O)c1cccc(CNC(=O)c2c(C)oc(C)c2C)c1 | > 29.5 µM |  | 
O=C(c1csc(Br)c1)N1CCCC(n2ccnc2)C1 (stereo not given) | > 29.5 µM |  | 
COc1ccc(CC(=O)N(C)Cc2nnc3ccccn23)cc1 | > 29.5 µM |  | 
Cc1ccccc1CC(C)NCc1c(C)nn(C)c1N1CCOCC1.Cl (stereo not given) | > 29.5 µM | 7.535 | 
Cc1ccc(N2CCCC3(COCCN(c4ccccn4)C3)C2)nn1 (stereo not given) |  |  | IC50 (Histidine--tRNA ligase [1]): > 100 µM
Cc1ccc(N2CCCC3(COCCN(c4ncccn4)C3)C2)nn1 (stereo not given) |  |  | IC50 (Histidine--tRNA ligase [1]): > 100 µM
COc1ccc(C[C@H]2CN(c3nnc(C)s3)CC[C@@H]2OC)cc1.O=C(O)C(F)(F)F | > 29.5 µM |  | pIC50 (Wolbachia pipientis): 5.531; IC50 (Wolbachia pipientis; Wolbachia pipientis): 3.58 µM; IC50 [6]: > 50.1 µM; IC50 [7]: 24.7 µM
